In ChEMBL document CHEMBL1127111, “Synthesis of non reducible inhibitors for trypanothione reductase from Trypanosoma cruzi” (Bioorg Med Chem Lett, 1993):
The source made the active and inactive calls. The calls are words filed in the database; no cut-off is given here.

What was measured:
Trypanothione reductase = Trypanothione reductase (Trypanosoma cruzi, UniProt P28593); assay: Compound was tested for inhibitory activity against recombinant Trypanothione reductase from Trypanosoma cruzi
[1] = tested on: Glutathione reductase (Bos taurus); assay: Compound was tested for inhibitory activity against glutathione reductase from bovine intestinal mucosa; NI means no inhibition

Sequence of Trypanothione reductase (P28593 whole entry): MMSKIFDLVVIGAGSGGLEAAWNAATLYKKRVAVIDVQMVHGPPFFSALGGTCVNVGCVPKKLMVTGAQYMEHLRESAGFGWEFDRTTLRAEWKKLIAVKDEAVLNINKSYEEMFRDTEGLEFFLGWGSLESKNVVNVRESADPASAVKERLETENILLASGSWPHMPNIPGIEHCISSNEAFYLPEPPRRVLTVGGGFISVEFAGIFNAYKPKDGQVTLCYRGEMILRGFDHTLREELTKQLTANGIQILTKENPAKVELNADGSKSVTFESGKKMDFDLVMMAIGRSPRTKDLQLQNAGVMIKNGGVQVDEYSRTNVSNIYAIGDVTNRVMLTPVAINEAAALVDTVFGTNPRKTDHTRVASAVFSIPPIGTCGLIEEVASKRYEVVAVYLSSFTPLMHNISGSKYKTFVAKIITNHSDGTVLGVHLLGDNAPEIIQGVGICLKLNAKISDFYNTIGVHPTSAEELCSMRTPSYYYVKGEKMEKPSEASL

`CN(C)CCCNC(=O)CNC(=O)C(CSCSCC(NC(=O)OCc1ccccc1)C(=O)NCC(=O)NCCCN(C)C)NC(=O)OCc1ccccc1` (stereo unspecified) was tested, and the Ki (Trypanothione reductase) was 31 µM and the Activity [1] was “inactive”.

With `CN(C)CCCNC(=O)CNC(=O)C(CSCC(NC(=O)OCc1ccccc1)C(=O)NCC(=O)NCCCN(C)C)NC(=O)OCc1ccccc1` (stereo unspecified) the Ki (Trypanothione reductase) was 92 µM and the Activity [1] was “inactive”.

In the case of `CN(C)CCCNC(=O)CNC(=O)C(CCSCC(NC(=O)OCc1ccccc1)C(=O)NCC(=O)NCCCN(C)C)NC(=O)OCc1ccccc1` (stereo unspecified), the Ki (Trypanothione reductase) is reported as 43 µM and the Activity [1] is reported as “inactive”.
